Key:
[1] = test system: untransformed tissue; experiment: Visual selection with IFT as selectable agent; format: cell-based, soybean; settings: FIG. 1; transformed material becomes green
Source text: FIG. 1: Visual selection with IFT as selectable agent.

[2] = test system: untransformed cells; experiment: Selection with DKN as selectable agent in Shoot Induction medium, cotyledonary node method; format: cell-based, soybean; settings: DKN 2 ppm in Shoot Induction medium
Protocol: The cotyledonary node method used for transforming soybean has been described by Zhang et al., 1999, Clemente et al. 2000, Xing et al. 2000.
After washing, the explants are placed (5 per plate) on the Shoot Initiation Medium, inclined at 45°, with the cotyledonary node area imbedded in the medium and upwards. The Shoot Initiation step lasts 1 month (24° C. 16/8 photoperiod) with a transfer after 15 days in which the hypocotyl is eliminated to keep only the differentiating area and the cotyledon.
1×B5 major salts, 1×B5 minor salts, 28 mg/L Ferrous, 38 mg/L NaEDTA, 30 g/L Sucrose, 0.59 g/L MES, and 7 g/L Noble agar (pH 5.7). Filter sterilized 1×B5 vitamins, BAP (1.11 mg/L), Timentin (50 mg/L), Cefotaxime (200 mg/L), Vancomycin (50 mg/L) and the selection agent are added to this medium after autoclaving.
Transgenic events (cv Thorne) were generated for construct carrying hppd gene alone (e.i. pFCO117) or in combination with pdh gene (e.i. pFCO48), using DKN as selection agent, as described in example 1. Selection agent DKN (diketonitrile) was added in SI (Shoot Induction medium) at a final concentration of 2 ppm and for about 4 week. When explants were transferred to SE (Shoot Elongation medium), selection was removed. […] Visual selectable marker dramatically decreases selection time, as untransformed material can be identified and eliminated in as little as 4 weeks after transformation.

[3] = about 4 weeks, cv Thorne, in vitro

How did the “phenotype of untransformed tissue” value [1] turn out when `CS(=O)(=O)c1cc(C(F)(F)F)ccc1C(=O)c1cnoc1C1CC1` [IFT, (5-cyclopropyl-4-isoxazolyl)[2-(methylsulfonyl)-4-(trifluoromethyl)phenyl]methanone] was run?
Its value is “white, elongated shoots”.

For `CS(=O)(=O)c1cc(C(F)(F)F)ccc1C(=O)C(C#N)C(=O)C1CC1` (stereo not shown) [DKN, 2-cyano-3-cyclopropyl-1-(2-methylsulphonyl-4-trifluoromethylphenyl)-propane-1,3-dione], which “effect on chlorophyll synthesis” value [2, 3] is on record?
The value was “prevents chlorophyll synthesis”.

What about the “lethality for untransformed cells” value [2, 3] of the same compound?
The value was “does not kill untransformed cells”.

And the “phenotype of untransformed tissue” value ([2]; transformed material becomes green)?
Its value is “white, elongated shoots”.
